Results taken from PubChem BioAssay AID1919007 (Molecular Pharmacology Branch, DTP, NCI, 2023).
“And” between values parts separate entries of the source, which are not always exact repeats. Equal entries are not always repeated.

System: A498 complex spheroids with HUVEC/MSC, growth
Test: Anticancer human tumor A498 cell line growth inhibition [AhR];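 further: seven day exposure starting three days after spheroid seeding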;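 on viability, T/C: luminescence signal used as a surrogate for viable cells; luminescence viability scaled so 100% equals DMSO vehicle wells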
Details: for viability, T/C: stronger effect = lower value
Method in brief: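 Agents were dosed in half-log steps down from roughly clinical Cmax, or from 10 microM where Cmax was unknown, alone and with AhR antagonists. Read-out: percent test/control growth of tumor spheroids containing HUVEC and MSC stromal cells.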

[1] = curve of first compound, second compound 0.1 µM
[2] = curve of first compound, second compound 0.316 µM
[3] = curve of first compound, second compound 1 µM
[4] = curve of first compound, second compound 3.16 µM
[5] = curve of first compound, second compound 10 µM
[6] = second compound 0.1 µM, first compound 0.0316 µM
[7] = second compound 0.1 µM, first compound 0.1 µM
[8] = second compound 0.1 µM, first compound 0.316 µM
[9] = second compound 0.1 µM, first compound 1 µM
[10] = second compound 0.1 µM, first compound 3.16 µM
[11] = second compound 0.1 µM, first compound 10 µM
[12] = second compound 0.316 µM, first compound 0.0316 µM
[13] = second compound 0.316 µM, first compound 0.1 µM
[14] = second compound 0.316 µM, first compound 0.316 µM
[15] = second compound 0.316 µM, first compound 1 µM
[16] = second compound 0.316 µM, first compound 3.16 µM
[17] = second compound 0.316 µM, first compound 10 µM
[18] = second compound 1 µM, first compound 0.0316 µM
[19] = second compound 1 µM, first compound 0.1 µM
[20] = second compound 1 µM, first compound 0.316 µM
[21] = second compound 1 µM, first compound 1 µM
[22] = second compound 1 µM, first compound 3.16 µM
[23] = second compound 1 µM, first compound 10 µM
[24] = second compound 3.16 µM, first compound 0.0316 µM
[25] = second compound 3.16 µM, first compound 0.1 µM
[26] = second compound 3.16 µM, first compound 0.316 µM
[27] = second compound 3.16 µM, first compound 1 µM
[28] = second compound 3.16 µM, first compound 3.16 µM
[29] = second compound 3.16 µM, first compound 10 µM
[30] = second compound 10 µM, first compound 0.0316 µM
[31] = second compound 10 µM, first compound 0.1 µM
[32] = second compound 10 µM, first compound 0.316 µM
[33] = second compound 10 µM, first compound 1 µM
[34] = second compound 10 µM, first compound 3.16 µM
[35] = second compound 10 µM, first compound 10 µM
[36] = second compound 0.1 µM, first compound 0.00949 µM
[37] = second compound 0.1 µM, first compound 0.03 µM
[38] = second compound 0.1 µM, first compound 0.0949 µM
[39] = second compound 0.1 µM, first compound 0.3 µM
[40] = second compound 0.316 µM, first compound 0.00949 µM
[41] = second compound 0.316 µM, first compound 0.03 µM
[42] = second compound 0.316 µM, first compound 0.0949 µM
[43] = second compound 0.316 µM, first compound 0.3 µM
[44] = second compound 1 µM, first compound 0.00949 µM
[45] = second compound 1 µM, first compound 0.03 µM
[46] = second compound 1 µM, first compound 0.0949 µM
[47] = second compound 1 µM, first compound 0.3 µM
[48] = second compound 3.16 µM, first compound 0.00949 µM
[49] = second compound 3.16 µM, first compound 0.03 µM
[50] = second compound 3.16 µM, first compound 0.0949 µM
[51] = second compound 3.16 µM, first compound 0.3 µM
[52] = second compound 10 µM, first compound 0.00949 µM
[53] = second compound 10 µM, first compound 0.03 µM
[54] = second compound 10 µM, first compound 0.0949 µM
[55] = second compound 10 µM, first compound 0.3 µM
[56] = second compound 0.1 µM, first compound 0.949 µM
[57] = second compound 0.1 µM, first compound 3 µM
[58] = second compound 0.316 µM, first compound 0.949 µM
[59] = second compound 0.316 µM, first compound 3 µM
[60] = second compound 1 µM, first compound 0.949 µM
[61] = second compound 1 µM, first compound 3 µM
[62] = second compound 3.16 µM, first compound 0.949 µM
[63] = second compound 3.16 µM, first compound 3 µM
[64] = second compound 10 µM, first compound 0.949 µM
[65] = second compound 10 µM, first compound 3 µM

CC1(C)CCC(CN2CCN(c3ccc(C(=O)NS(=O)(=O)c4ccc(NCC5CCOCC5)c([N+](=O)[O-])c4)c(Oc4cnc5[nH]ccc5c4)c3)CC2)=C(c2ccc(Cl)cc2)C1 + CC(CO)NC(=O)c1cc(-c2ccc(Cl)cc2)nn(-c2cnn(C)c2)c1=O
IC50 [1]: 5410 nM | IC50 [2]: 5050 nM | IC50 [3]: 4900 nM | IC50 [4]: 3970 nM | IC50 [5]: 3800 nM | viability, T/C [6]: 98.3% | viability, T/C [7]: 98% | viability, T/C [8]: 94.3% | viability, T/C [9]: 86.4% | viability, T/C [10]: 75.1% | viability, T/C [11]: 23.6% | viability, T/C [12]: 91.1% | viability, T/C [13]: 92.3% | viability, T/C [14]: 85.7% | viability, T/C [15]: 84.7% | viability, T/C [16]: 69.7% | viability, T/C [17]: 21.6% | viability, T/C [18]: 82.5% | viability, T/C [19]: 85.1% | viability, T/C [20]: 86.4% | viability, T/C [21]: 79.5% | viability, T/C [22]: 68.8% | viability, T/C [23]: 20.3% | viability, T/C [24]: 77.5% | viability, T/C [25]: 79.4% | viability, T/C [26]: 79.4% | viability, T/C [27]: 63.3% | viability, T/C [28]: 61.2% | viability, T/C [29]: 20.6% | viability, T/C [30]: 64.3% | viability, T/C [31]: 69.5% | viability, T/C [32]: 66.1% | viability, T/C [33]: 59.4% | viability, T/C [34]: 56.8% | viability, T/C [35]: 22.4%

CC1COCCN1c1cc(-c2ccnn2C)c2ccnc(-c3ccn[nH]3)c2n1 (configuration not stated)
viability, T/C (compound 0.00316 µM): 108% and 93.8% and 98.7% | viability, T/C (compound 0.01 µM): 111% and 87.4% and 102% | viability, T/C (compound 0.0316 µM): 95.7% and 68.2% and 82.7% | viability, T/C (compound 0.1 µM): 64.3% and 61.4% and 47.2% | viability, T/C (compound 0.316 µM): 32.3% and 25.7% and 21% | viability, T/C (compound 1 µM): 22.3% and 15.8% and 13.9% | IC50 (curve of compound): 167 nM and 121 nM and 90.9 nM

Nc1ncn(C2CC(O)C(CO)S2)c(=O)n1 (configuration not stated) + Cc1cncc(-c2nc(NCCc3c[nH]c4ccccc34)c3ncn(C(C)C)c3n2)c1
IC50 [1]: > 300 nM | IC50 [2]: > 300 nM | IC50 [3]: > 300 nM | IC50 [4]: < 0.949 nM | IC50 [5]: < 0.949 nM | viability, T/C (second compound 0.1 µM, first compound 0.000949 µM): 90.1% | viability, T/C (second compound 0.1 µM, first compound 0.003 µM): 89.7% | viability, T/C [36]: 92.5% | viability, T/C [37]: 77.8% | viability, T/C [38]: 73.7% | viability, T/C [39]: 63.3% | viability, T/C (second compound 0.316 µM, first compound 0.000949 µM): 94.1% | viability, T/C (second compound 0.316 µM, first compound 0.003 µM): 104% | viability, T/C [40]: 95% | viability, T/C [41]: 86.9% | viability, T/C [42]: 80.6% | viability, T/C [43]: 68.3% | viability, T/C (second compound 1 µM, first compound 0.000949 µM): 83.6% | viability, T/C (second compound 1 µM, first compound 0.003 µM): 86% | viability, T/C [44]: 80.4% | viability, T/C [45]: 73.4% | viability, T/C [46]: 75.2% | viability, T/C [47]: 68.2% | viability, T/C (second compound 3.16 µM, first compound 0.000949 µM): 32.3% | viability, T/C (second compound 3.16 µM, first compound 0.003 µM): 33.6% | viability, T/C [48]: 36.5% | viability, T/C [49]: 27.1% | viability, T/C [50]: 29.6% | viability, T/C [51]: 28.2% | viability, T/C (second compound 10 µM, first compound 0.000949 µM): 5.79% | viability, T/C (second compound 10 µM, first compound 0.003 µM): 5.22% | viability, T/C [52]: 5.53% | viability, T/C [53]: 6.62% | viability, T/C [54]: 4.93% | viability, T/C [55]: 5.47%

CCN(c1cc(-c2ccc(CN3CCOCC3)cc2)cc(C(=O)NCc2c(C)cc(C)[nH]c2=O)c1C)C1CCOCC1 + Cc1cncc(-c2nc(NCCc3c[nH]c4ccccc34)c3ncn(C(C)C)c3n2)c1
IC50 [1]: > 3000 nM | IC50 [2]: > 3000 nM | IC50 [3]: > 3000 nM | IC50 [4]: < 9.49 nM | IC50 [5]: < 9.49 nM | viability, T/C [36]: 94% | viability, T/C [37]: 97% | viability, T/C [38]: 90.2% | viability, T/C [39]: 87.7% | viability, T/C [56]: 97.7% | viability, T/C [57]: 88.4% | viability, T/C [40]: 103% | viability, T/C [41]: 94.2% | viability, T/C [42]: 101% | viability, T/C [43]: 90% | viability, T/C [58]: 97.4% | viability, T/C [59]: 91.5% | viability, T/C [44]: 88.8% | viability, T/C [45]: 91.4% | viability, T/C [46]: 86.1% | viability, T/C [47]: 81.3% | viability, T/C [60]: 82% | viability, T/C [61]: 88.1% | viability, T/C [48]: 44.6% | viability, T/C [49]: 45% | viability, T/C [50]: 47.2% | viability, T/C [51]: 44.5% | viability, T/C [62]: 45.7% | viability, T/C [63]: 39.5% | viability, T/C [52]: 4.35% | viability, T/C [53]: 4.58% | viability, T/C [54]: 6.5% | viability, T/C [55]: 4.8% | viability, T/C [64]: 2.06% | viability, T/C [65]: 1.26%

O=C(C=Cn1cnc(-c2cc(C(F)(F)F)cc(C(F)(F)F)c2)n1)NNc1cnccn1 + CC(CO)NC(=O)c1cc(-c2ccc(Cl)cc2)nn(-c2cnn(C)c2)c1=O
IC50 [1]: 58.5 nM | IC50 [2]: 51.6 nM | IC50 [3]: 45.8 nM | IC50 [4]: 32.7 nM | IC50 [5]: 9.75 nM | viability, T/C [36]: 72.7% | viability, T/C [37]: 69% | viability, T/C [38]: 36.2% | viability, T/C [39]: 23.2% | viability, T/C [56]: 22.3% | viability, T/C [57]: 17.8% | viability, T/C [40]: 74.8% | viability, T/C [41]: 62.7% | viability, T/C [42]: 35.4% | viability, T/C [43]: 23.1% | viability, T/C [58]: 17.9% | viability, T/C [59]: 14.7% | viability, T/C [44]: 67.2% | viability, T/C [45]: 58.8% | viability, T/C [46]: 35.3% | viability, T/C [47]: 23.1% | viability, T/C [60]: 18.5% | viability, T/C [61]: 16.7% | viability, T/C [48]: 61.3% | viability, T/C [49]: 51.4% | viability, T/C [50]: 32.1% | viability, T/C [51]: 20.7% | viability, T/C [62]: 15.7% | viability, T/C [63]: 18.4% | viability, T/C [52]: 49.9% | viability, T/C [53]: 46.5% | viability, T/C [54]: 31.2% | viability, T/C [55]: 20.9% | viability, T/C [64]: 18.5% | viability, T/C [65]: 17.4%

Nc1ccn(C2OC(CO)C(O)C2(F)F)c(=O)n1 (configuration not stated) + CC(CO)NC(=O)c1cc(-c2ccc(Cl)cc2)nn(-c2cnn(C)c2)c1=O
IC50 [1]: < 31.6 nM | IC50 [2]: < 31.6 nM | IC50 [3]: < 31.6 nM | IC50 [4]: < 31.6 nM | IC50 [5]: < 31.6 nM | viability, T/C [6]: 26.1% | viability, T/C [7]: 25.7% | viability, T/C [8]: 24.6% | viability, T/C [9]: 35.1% | viability, T/C [10]: 32.8% | viability, T/C [11]: 29.9% | viability, T/C [12]: 27.5% | viability, T/C [13]: 25.8% | viability, T/C [14]: 31% | viability, T/C [15]: 32.3% | viability, T/C [16]: 35% | viability, T/C [17]: 28.3% | viability, T/C [18]: 25.6% | viability, T/C [19]: 29.8% | viability, T/C [20]: 32.1% | viability, T/C [21]: 30.2% | viability, T/C [22]: 34.4% | viability, T/C [23]: 29.2% | viability, T/C [24]: 27.6% | viability, T/C [25]: 26.1% | viability, T/C [26]: 34.2% | viability, T/C [27]: 33.7% | viability, T/C [28]: 29.6% | viability, T/C [29]: 27.8% | viability, T/C [30]: 33.2% | viability, T/C [31]: 30.1% | viability, T/C [32]: 27% | viability, T/C [33]: 29.5% | viability, T/C [34]: 27.5% | viability, T/C [35]: 24.1%
